T/C data for 23 molecules are collected here from PubChem BioAssay AID296 (DTP/NCI, 2004).

Values joined by “and” are separate entries in the source; they are usually repeats but may differ in a detail not shown here. Identical values can stand only once. Records with an inconclusive call do not appear.

This experiment concerns MX-1 breast xenograft, nude mice, tumor weight T/C. Nature of the experiment: NCI In Vivo Anticancer Drug Screen. Data for tumor model Human Mammary Carcinoma MX-1 Xenograft (intrarenal inoculation) in NU/NU Swiss (nude) mice. Particulars: endpoint: mean tumor weight change, higher = larger tumour. Summed up:
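Mice carrying the implanted tumor receive either test agent or vehicle. Tumor size or survival is then recorded for both groups. Results are stated as the treated-to-control quotient.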
(A xenograft is tissue or cells of one species grown in another, often human tumour cells in immunodeficient mice.)

The mark [1] stands for this setting: dose: 100.0 mg/kg/injection, schedule: Q01DX010 (sc), vehicle: saline.
Where [2] appears, read: dose: 200.0 mg/kg/injection, schedule: Q01DX010 (sc), vehicle: saline.
The mark [3] stands for this setting: dose: 300.0 mg/kg/injection, schedule: Q04DX003 (sc), vehicle: suspension in saline.
Where [4] appears, read: dose: 600.0 mg/kg/injection, schedule: Q04DX003 (sc), vehicle: saline with Tween-80.
The mark [5] stands for this setting: dose: 1200.0 mg/kg/injection, schedule: Q04DX003 (sc), vehicle: saline with Tween-80.
[6] abbreviates: dose: 2400.0 mg/kg/injection, schedule: Q04DX003 (sc), vehicle: saline with Tween-80.
Setting [7] is: dose: 300.0 mg/kg/injection, schedule: Q04DX003 (sc), vehicle: saline.
[8] abbreviates: dose: 600.0 mg/kg/injection, schedule: Q04DX003 (sc), vehicle: saline.
[9] abbreviates: dose: 1200.0 mg/kg/injection, schedule: Q04DX003 (sc), vehicle: saline.

Consider `C[C@]12C=CC(=O)C=C1CC[C@@H]1[C@@H]2C(=O)C[C@@]2(C)[C@H]1CC[C@]2(O)C(=O)CO`, for which the T/C is, setting by setting: (dose: 300.0 mg/kg/injection, schedule: Q04DX003 (sc), vehicle: Klucel (hydroxypropylcellulose) (HPC)) 40 % of control; (dose: 600.0 mg/kg/injection, schedule: Q04DX003 (sc), vehicle: Klucel (hydroxypropylcellulose) (HPC)) 73 % of control; (dose: 1200.0 mg/kg/injection, schedule: Q04DX003 (sc), vehicle: Klucel (hydroxypropylcellulose) (HPC)) 44 % of control; (dose: 2400.0 mg/kg/injection, schedule: Q04DX003 (sc), vehicle: Klucel (hydroxypropylcellulose) (HPC)) 29 % of control.

`CN1CCN(CCCN2c3ccccc3Sc3ccc(C(F)(F)F)cc32)CC1`: the T/C runs as follows: (dose: 25.0 mg/kg/injection, schedule: Q01DX010 (sc), vehicle: saline) 107 % of control; (dose: 50.0 mg/kg/injection, schedule: Q01DX010 (sc), vehicle: saline) 61 % of control and 73 % of control; under setting [1], 31 % of control and 52 % of control; under setting [2], 32 % of control.

With `COC(=O)C12OCC34C(CC5C(C)=CC(=O)C(O)C5(C)C3C(O)C1O)OC(=O)C(OC(=O)CC(C)C)C24` (configuration not stated), the T/C is 107 % of control (dose: 1.5 mg/kg/injection, schedule: Q04DX003 (sc), vehicle: saline + alcohol) and 58 % of control (dose: 3.0 mg/kg/injection, schedule: Q04DX003 (sc), vehicle: saline + alcohol).

As to `N=c1nc2n(cc1F)[C@@H]1O[C@H](CO)[C@@H](O)[C@@H]1O2`, the T/C by setting is: under setting [3], 104 % of control; (dose: 600.0 mg/kg/injection, schedule: Q04DX003 (sc), vehicle: suspension in saline) 89 % of control; (dose: 1200.0 mg/kg/injection, schedule: Q04DX003 (sc), vehicle: suspension in saline) 117 % of control.

On to `NCC1CCC(C(=O)O)CC1` (configuration not stated), for which the T/C is, setting by setting: under setting [4], 115 % of control; under setting [5], 76 % of control; under setting [6], 155 % of control.

`CCSC(=O)N1c2ccc(OC)cc2C=CC1C#N` (configuration not stated): the T/C is, setting by setting: under setting [4], 119 % of control; under setting [5], 85 % of control; under setting [6], 57 % of control; (dose: 4800.0 mg/kg/injection, schedule: Q04DX003 (sc), vehicle: saline with Tween-80) 40 % of control.

`NCCCC(N)(C(=O)O)C(F)F` (configuration not stated): the T/C was 110 % of control (dose: 300.0 mg/kg/injection, schedule: Q04DX003 (sc), vehicle: distilled water + alcohol); 83 % of control (dose: 600.0 mg/kg/injection, schedule: Q04DX003 (sc), vehicle: distilled water + alcohol); 73 % of control (dose: 1200.0 mg/kg/injection, schedule: Q04DX003 (sc), vehicle: distilled water + alcohol); 112 % of control (dose: 2400.0 mg/kg/injection, schedule: Q04DX003 (sc), vehicle: distilled water + alcohol).

With `C=C1C(=O)OCC1C(=O)O` (configuration not stated), the T/C was 74 % of control (dose: 50.0 mg/kg/injection, schedule: Q04DX003 (sc), vehicle: suspension in saline); 94 % of control (dose: 100.0 mg/kg/injection, schedule: Q04DX003 (sc), vehicle: suspension in saline); 50 % of control (dose: 200.0 mg/kg/injection, schedule: Q04DX003 (sc), vehicle: suspension in saline).

For `COC(=O)Nc1cccc(-c2nc3ccc(NC(=O)OC)cc3c(=O)n2-c2ccccc2)c1`, the T/C (dose: 25.0 mg/kg/injection, schedule: Q01DX010 (sc), vehicle: Klucel (hydroxypropylcellulose) (HPC)) is 87 % of control; the T/C (dose: 100.0 mg/kg/injection, schedule: Q01DX010 (sc), vehicle: Klucel (hydroxypropylcellulose) (HPC)) was 33 % of control; the T/C (dose: 400.0 mg/kg/injection, schedule: Q01DX010 (sc), vehicle: Klucel (hydroxypropylcellulose) (HPC)) was 123 % of control.

In the case of `CCCCCCCCCCCCCCCCCC(=O)Nc1ccn(C2OC(CO)C(O)C2O)c(=O)n1` (configuration not stated), the T/C under setting [4] is 11 % of control and 15 % of control and 24 % of control; the T/C under setting [5] is 3 % of control and 8 % of control.

With `O=S(=O)(O)O.[NH-]C1CCCCC1[NH-].[Pt+2]` (configuration not stated), the T/C reads like this: (dose: 0.63 mg/kg/injection, schedule: Q01DX010 (sc), vehicle: dextrose) 95 % of control and 111 % of control and 115 % of control; (dose: 2.5 mg/kg/injection, schedule: Q01DX010 (sc), vehicle: dextrose) 10 % of control and 12 % of control.

Regarding `ClCCCN1CCN(CCCl)CC1`, the T/C (dose: 7.5 mg/kg/injection, schedule: Q04DX003 (sc), vehicle: saline) was 8 % of control and 10 % of control and 31 % of control.

`Nc1ncn(C2CC(O)C(CO)O2)c(=O)n1` (configuration not stated): the T/C (dose: 0.2 mg/kg/injection, schedule: Q01DX010 (sc), vehicle: saline) is 114 % of control.

Regarding `CCCC(=O)O.CCCC(=O)O.CCCC(=O)O.CCCC(=O)O.[Rh].[Rh]`, the T/C by setting is: (dose: 2.0 mg/kg/injection, schedule: Q04DX003 (sc), vehicle: suspension in saline) 99 % of control; (dose: 4.0 mg/kg/injection, schedule: Q04DX003 (sc), vehicle: suspension in saline) 115 % of control; (dose: 8.0 mg/kg/injection, schedule: Q04DX003 (sc), vehicle: suspension in saline) 80 % of control.

As for `CN(C)C=O`, the T/C is 10 % of control under setting [2]; 1 % of control (dose: 1896.0 mg/kg/injection, schedule: Q01DX010 (sc), vehicle: suspension in saline); -44 % of control (dose: 2844.0 mg/kg/injection, schedule: Q01DX010 (sc), vehicle: suspension in saline); -11 % of control (dose: 4266.0 mg/kg/injection, schedule: Q01DX010 (sc), vehicle: suspension in saline).

`C(CC1CO1)C1CO1` (configuration not stated): the T/C is -59 % of control and -41 % of control under setting [1]; 1 % of control and 11 % of control (dose: 150.0 mg/kg/injection, schedule: Q04DX003 (sc), vehicle: suspension in saline); 4 % of control under setting [3].

`O=C(O)C1(C(=O)O)CCC1.[NH2-].[NH2-].[Pt+2]`: the T/C is 2 % of control and 11 % of control (dose: 12.5 mg/kg/injection, schedule: Q01DX010 (sc), vehicle: dextrose); -87 % of control and -75 % of control (dose: 50.0 mg/kg/injection, schedule: Q01DX010 (sc), vehicle: dextrose).

In the case of `Nc1cccc(=O)[nH]1`, the T/C is, setting by setting: under setting [7], 92 % of control; under setting [8], 95 % of control; under setting [9], 102 % of control.

As for `Oc1cc2ccccc2c(-c2c(O)c(O)cc3ccccc23)c1O`, the T/C is, setting by setting: (dose: 150.0 mg/kg/injection, schedule: Q04DX003 (sc), vehicle: saline with Tween-80) 162 % of control; (dose: 300.0 mg/kg/injection, schedule: Q04DX003 (sc), vehicle: saline with Tween-80) 151 % of control; under setting [5], 96 % of control.

`COC(=O)c1ccoc1`: the T/C is 123 % of control (dose: 150.0 mg/kg/injection, schedule: Q04DX003 (sc), vehicle: saline); 89 % of control under setting [7]; 66 % of control under setting [8].

Take `O=C1N[C@@H]([C@H]2CC[C@H](Cl)CN2)C(=O)N[C@H]1[C@H]1CC[C@H](Cl)CN1`: the T/C (dose: 0.62 mg/kg/injection, schedule: Q01DX010 (sc), vehicle: water) is 110 % of control; the T/C (dose: 2.5 mg/kg/injection, schedule: Q01DX010 (sc), vehicle: water) was 72 % of control and 73 % of control; the T/C (dose: 2.5 mg/kg/injection, schedule: Q04DX003 (sc), vehicle: water) is 11 % of control; the T/C (dose: 5.0 mg/kg/injection, schedule: Q01DX010 (sc), vehicle: water) is 30 % of control and 46 % of control; the T/C (dose: 5.0 mg/kg/injection, schedule: Q04DX003 (sc), vehicle: water) is -62 % of control; the T/C (dose: 10.0 mg/kg/injection, schedule: Q04DX003 (sc), vehicle: water) was -100 % of control. Also, the T/C (dose: 20.0 mg/kg/injection, schedule: Q04DX003 (sc), vehicle: water) was -100 % of control.

On to `N=C(N)c1ccc(/C=C/c2ccc(C(=N)N)cc2O)cc1`, for which the T/C is 87 % of control (dose: 37.5 mg/kg/injection, schedule: Q04DX003 (sc), vehicle: water); 83 % of control (dose: 75.0 mg/kg/injection, schedule: Q04DX003 (sc), vehicle: water); 89 % of control (dose: 150.0 mg/kg/injection, schedule: Q04DX003 (sc), vehicle: water); 77 % of control (dose: 300.0 mg/kg/injection, schedule: Q04DX003 (sc), vehicle: water).

For `O=C(O)CP(=O)(O)O`, the T/C under setting [7] is 87 % of control; the T/C under setting [8] is 89 % of control; the T/C under setting [9] was 83 % of control; the T/C (dose: 2400.0 mg/kg/injection, schedule: Q04DX003 (sc), vehicle: saline) was 59 % of control.
